Experimental data from patent US10626094B2 (La Jolla Institute of Allergy & Immunology, priority 2014, dated 2020).
pIC50: −log10 of the molar value.

molecular target: LMPTP-A (Low Molecular Weight Protein Tyrosine Phosphatase-A) enzyme (Homo sapiens (Human), UniProt P24666); experiment: LMPTP primary screening / LMPTP (OMFP) enzyme inhibition assay, fluorescence intensity; assay type: biochemical; settings: LMPTP-A, OMFP substrate, method of Example 2; read-out: IC50
In short: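 Single-concentration screen, test compounds 20 μM final, […]. Enzyme (0.625 nM) and OMFP (400 μM) react 50 min at room temp, dark, in Bis-Tris buffer pH 6.0 containing DTT 1 mM and Triton X-100 0.01%. Read-out: fluorescence intensity.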

LMPTP-A (Low Molecular Weight Protein Tyrosine Phosphatase-A) enzyme, sequence (P24666 whole entry): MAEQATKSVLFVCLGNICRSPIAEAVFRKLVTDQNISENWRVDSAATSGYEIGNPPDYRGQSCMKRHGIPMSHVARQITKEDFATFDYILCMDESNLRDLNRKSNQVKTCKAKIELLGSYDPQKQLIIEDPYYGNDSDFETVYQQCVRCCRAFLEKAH

Question: How did the pIC50 turn out when `COc1ccc(-c2cc(Nc3ccc(CC4CCNCC4)cc3)c3ccccc3n2)cc1` [Compound I32, [2-(4-methoxyphenyl)(4-quinolyl)][4-(4-piperidylmethyl)phenyl]amine] was run?
Answer: 5.30 to 6.10

Question: How did the pIC50 turn out when `CCN1CCC(Cc2ccc(Nc3cc(-c4ccc(OC)cc4)nc4ccccc34)cc2)CC1` [Compound I33, {4-[(1-ethyl(4-piperidyl))methyl]phenyl}[2-(4-methoxyphenyl)(4-quinolyl)]amine] was run?
Answer: 5.30 to 6.10

Question: `COc1ccc(-c2cc(Nc3ccc(CC4CCN(C(C)=O)CC4)cc3)c3ccccc3n2)cc1` [Compound I34, 1-acetyl-4-[(4-{[2-(4-methoxyphenyl)(4-quinolyl)]amino}phenyl)methyl]piperidine] was tested. Which pIC50 did it give?
Answer: 5.30 to 6.10

Question: How did the pIC50 turn out when `COc1ccc(-c2cc(Nc3ccc(CC4CCN(S(C)(=O)=O)CC4)cc3)c3ccccc3n2)cc1` [Compound I35, 4-[(4-{[2-(4-methoxyphenyl)(4-quinolyl)]amino}phenyl)methyl]-1-(methylsulfonyl)piperidine] was run?
Answer: 5.30 to 6.10

Question: `COc1ccc(-c2cc(Nc3cccc(CC#N)c3)c3ccccc3n2)cc1` [Compound I36, 2-(3-{[2-(4-methoxyphenyl)-4-quinolyl]amino}phenyl)ethanenitrile] was tested. Which pIC50 did it give?
Answer: 5.30 to 6.10

Question: `COc1ccc(-c2cc(Nc3ccccc3CC3CCN(C)CC3)c3ccccc3n2)cc1` [Compound I37, [2-(4-methoxyphenyl)(4-quinolyl)]{2-[(1-methyl(4-piperidyl))methyl]phenyl}amine] was tested. Which pIC50 did it give?
Answer: < 5.30

Question: How did the pIC50 turn out when `COc1ccc(-c2cc(Nc3ccccc3CC3CCNCC3)c3ccccc3n2)cc1` [Compound I38, [2-(4-methoxyphenyl)(4-quinolyl)][2-(4-piperidylmethyl)phenyl]amine] was run?
Answer: < 5.30

Question: How did the pIC50 turn out when `COc1ccc(-c2cc(Nc3cccc(CN(C)C)c3)c3ccccc3n2)cc1` [Compound I39, [(3-{[2-(4-methoxyphenyl)(4-quinolyl)]amino}phenyl)methyl]dimethylamine] was run?
Answer: 5.30 to 6.10

Question: With `FC(F)(F)c1ccc(C(F)(F)F)c(-c2cc(Nc3cccc(CC4CCN(Cc5ccccc5)CC4)c3)c3ccccc3n2)c1` [Compound I40, {2-[2,5-bis(trifluoromethyl)phenyl](4-quinolyl)}(3-{[1-benzyl(4-piperidyl)]methyl}phenyl)amine] as the molecule, how does the pIC50 read?
Answer: < 5.30

Question: With `FC(F)(F)c1ccc(C(F)(F)F)c(-c2cc(Nc3cccc(CC4CCNCC4)c3)c3ccccc3n2)c1` [Compound I41, {2-[2,5-bis(trifluoromethyl)phenyl](4-quinolyl)}[3-(4-piperidylmethyl)phenyl]amine] as the molecule, how does the pIC50 read?
Answer: 5.30 to 6.10

Question: How did the pIC50 turn out when `CN(C)Cc1cccc(Nc2cc(-c3cc(C(F)(F)F)cc(C(F)(F)F)c3)nc3ccccc23)c1` [Compound I42, {[3-({2-[3,5-bis(trifluoromethyl)phenyl](4-quinolyl)}amino)phenyl]methyl}dimethylamine] was run?
Answer: < 5.30

Question: How did the pIC50 turn out when `FC(F)(F)c1cc(-c2cc(Nc3ccc(CN4CCCCC4)cc3)c3ccccc3n2)cc(C(F)(F)F)c1` [Compound I43, {2-[3,5-bis(trifluoromethyl)phenyl](4-quinolyl)}[4-(piperidylmethyl)phenyl]amine] was run?
Answer: < 5.30

Question: How did the pIC50 turn out when `FC(F)(F)c1cc(-c2cc(Nc3cccc(CN4CCCC4)c3)c3ccccc3n2)cc(C(F)(F)F)c1` [Compound I44, {2-[3,5-bis(trifluoromethyl)phenyl](4-quinolyl)}[3-(pyrrolidinylmethyl)phenyl]amine] was run?
Answer: < 5.30

Question: `CN(C)Cc1cc(CO)cc(Nc2cc(-c3cccc(Cl)c3)nc3ccccc23)c1` [Compound I45, (5-[(dimethylamino)methyl]-3-{[2-(3-chlorophenyl)(4-quinolyl)]amino}phenyl)methan-1-ol] was tested. Which pIC50 did it give?
Answer: 5.30 to 6.10

Question: How did the pIC50 turn out when `CN1CCCC1CCNc1cc(-c2cc(C(F)(F)F)cc(C(F)(F)F)c2)nc2ccccc12` (centres unmarked) [Compound I46, {2-[3,5-bis(trifluoromethyl)phenyl](4-quinolyl)}[2-(1-methylpyrrolidin-2-yl)ethyl]amine] was run?
Answer: < 5.30

Question: With `CN(C)Cc1ccc(Nc2cc(-c3cc(C(F)(F)F)cc(C(F)(F)F)c3)nc3ccccc23)cc1` [Compound I47, {[4-({2-[3,5-bis(trifluoromethyl)phenyl](4-quinolyl)}amino)phenyl]methyl}dimethylamine] as the molecule, how does the pIC50 read?
Answer: < 5.30

Question: With `C[N+]1(C)CCC(Cc2ccccc2Nc2cc(-c3cc(C(F)(F)F)cc(C(F)(F)F)c3)nc3ccccc23)CC1` [Compound I48, {2-[(1,1-dimethyl(4-piperidyl))methyl]phenyl} {2-[3,5-bis(trifluoromethyl)phenyl](4-quinolyl)}amine] as the molecule, how does the pIC50 read?
Answer: < 5.30

Question: With `FC(F)(F)c1cc(-c2cc(Nc3ccccc3CC3CCNCC3)c3ccccc3n2)cc(C(F)(F)F)c1` [Compound I49, {2-[3,5-bis(trifluoromethyl)phenyl](4-quinolyl)}[2-(4-piperidylmethyl)phenyl]amine] as the molecule, how does the pIC50 read?
Answer: < 5.30

Question: With `FC(F)(F)c1cc(-c2cc(Nc3cccc(CC4CCN(Cc5ccccc5)CC4)c3)c3ccccc3n2)cc(C(F)(F)F)c1` [Compound I50, {2-[3,5-bis(trifluoromethyl)phenyl](4-quinolyl)}(3-{[1-benzyl(4-piperidyl)]methyl}phenyl)amine] as the molecule, how does the pIC50 read?
Answer: < 5.30

Question: With `C[N+]1(C)CCC(Cc2cccc(Nc3cc(-c4cc(C(F)(F)F)cc(C(F)(F)F)c4)nc4ccccc34)c2)CC1` [Compound I51, {3-[(1,1-dimethyl(4-piperidyl))methyl]phenyl} {2-[3,5-bis(trifluoromethyl)phenyl](4-quinolyl)}amine] as the molecule, how does the pIC50 read?
Answer: < 5.30

Question: `FC(F)(F)c1cc(-c2cc(Nc3cccc(CC4CCNCC4)c3)c3ccccc3n2)cc(C(F)(F)F)c1` [Compound I52, {2-[3,5-bis(trifluoromethyl)phenyl](4-quinolyl)}[3-(4-piperidylmethyl)phenyl]amine] was tested. Which pIC50 did it give?
Answer: < 5.30

Question: `CN1CCCC1CCNc1cc(-c2ccc(C(F)(F)F)cc2C(F)(F)F)nc2ccccc12` (centres unmarked) [Compound I53, {2-[2,4-bis(trifluoromethyl)phenyl](4-quinolyl)}[2-(1-methylpyrrolidin-2-yl)ethyl]amine] was tested. Which pIC50 did it give?
Answer: < 5.30

Question: How did the pIC50 turn out when `CN(C)Cc1ccc(Nc2cc(-c3ccc(C(F)(F)F)cc3C(F)(F)F)nc3ccccc23)cc1` [Compound I54, {[4-({2-[2,4-bis(trifluoromethyl)phenyl](4-quinolyl)}amino)phenyl]methyl}dimethylamine] was run?
Answer: < 5.30

Question: `FC(F)(F)c1ccc(-c2cc(Nc3ccccc3CC3CCNCC3)c3ccccc3n2)c(C(F)(F)F)c1` [Compound I55, {2-[2,4-bis(trifluoromethyl)phenyl](4-quinolyl)}[2-(4-piperidylmethyl)phenyl]amine] was tested. Which pIC50 did it give?
Answer: < 5.30

Question: `CC(C)C(=O)Nc1ccc(-c2cc(NCCCN3CCCCC3)c3ccccc3n2)cc1` [Compound I56] was tested. Which pIC50 did it give?
Answer: 5.30 to 6.10

Question: How did the pIC50 turn out when `O=C(Nc1ccc(-c2cc(NCCCN3CCCCC3)c3ccccc3n2)cc1)c1ccccc1` [Compound I57] was run?
Answer: 6.10 to 6.70

Question: `O=C(O)CCC(=O)Nc1ccc(-c2cc(NCCCN3CCCCC3)c3ccccc3n2)cc1` [Compound I58] was tested. Which pIC50 did it give?
Answer: 5.30 to 6.10

Question: With `N#CCCNC(=O)c1ccc(-c2cc(NCCCN3CCCCC3)c3ccccc3n2)cc1` [Compound I59] as the molecule, how does the pIC50 read?
Answer: 6.10 to 6.70

Question: With `CC(C)NC(=O)c1ccc(-c2cc(NCCCN3CCCCC3)c3ccccc3n2)cc1` [Compound I61, N-(methylethyl)(4-{4-[(3-piperidylpropyl)amino](2-quinolyl)}phenyl)carboxamide] as the molecule, how does the pIC50 read?
Answer: 5.30 to 6.10

Question: How did the pIC50 turn out when `CCNC(=O)c1ccc(-c2cc(NCCCN3CCCCC3)c3ccccc3n2)cc1` [Compound I62] was run?
Answer: 5.30 to 6.10

Question: `O=C(NCC(F)(F)F)c1ccc(-c2cc(NCCCN3CCCCC3)c3ccccc3n2)cc1` [Compound I63] was tested. Which pIC50 did it give?
Answer: 5.30 to 6.10

Question: With `O=C(NCC1CCCO1)c1ccc(-c2cc(NCCCN3CCCCC3)c3ccccc3n2)cc1` (centres unmarked) [Compound I64] as the molecule, how does the pIC50 read?
Answer: 5.30 to 6.10

Question: `CCOC(=O)CNC(=O)c1ccc(-c2cc(NCCCN3CCCCC3)c3ccccc3n2)cc1` [Compound I65] was tested. Which pIC50 did it give?
Answer: 6.10 to 6.70

Question: How did the pIC50 turn out when `CN(C)CCNC(=O)c1ccc(-c2cc(NCCCN3CCCCC3)c3ccccc3n2)cc1` [Compound I66] was run?
Answer: 6.10 to 6.70

Question: With `O=C(NCCCO)c1ccc(-c2cc(NCCCN3CCCCC3)c3ccccc3n2)cc1` [Compound I67] as the molecule, how does the pIC50 read?
Answer: 6.10 to 6.70

Question: `O=C(O)CNC(=O)c1ccc(-c2cc(NCCCN3CCCCC3)c3ccccc3n2)cc1` [Compound I68] was tested. Which pIC50 did it give?
Answer: 5.30 to 6.10

Question: How did the pIC50 turn out when `COC(=O)CNC(=O)c1ccc(-c2cc(NCCCN3CCCCC3)c3ccccc3n2)cc1` [Compound I69] was run?
Answer: 5.30 to 6.10

Question: How did the pIC50 turn out when `CCN(CC)C(=O)c1ccc(-c2cc(NCCCC3CCCNC3)c3ccccc3n2)cc1` (centres unmarked) [Compound I71, N,N-diethyl(4-{4-[(3-piperidylpropyl)amino](2-quinolyl)}phenyl)carboxamide] was run?
Answer: 6.10 to 6.70

Question: `CN(C)C(=O)c1ccc(-c2cc(NCCCN3CCCCC3)c3ccccc3n2)cc1` [Compound I72] was tested. Which pIC50 did it give?
Answer: 5.30 to 6.10

Question: `CNC(=O)c1ccc(-c2cc(NCCCN3CCCCC3)c3ccccc3n2)cc1` [Compound I73] was tested. Which pIC50 did it give?
Answer: 5.30 to 6.10

Question: How did the pIC50 turn out when `FC(F)(F)c1ccc(Nc2cc(NCCCN3CCCCC3)c3ccccc3n2)c(C(F)(F)F)c1` [Compound I75] was run?
Answer: < 5.30

Question: With `Clc1cccc(Nc2cc(NCCCN3CCCCC3)c3ccccc3n2)c1` [Compound I76] as the molecule, how does the pIC50 read?
Answer: < 5.30

Question: With `CC(=O)Nc1ccc(-c2cc(NCCCN3CCCCC3)c3ccccc3n2)cc1C(F)(F)F` [Compound I77] as the molecule, how does the pIC50 read?
Answer: 5.30 to 6.10

Question: `c1ccc2c(NCCCN3CCCCC3)cc(-c3ccc4ccsc4c3)nc2c1` [Compound I78] was tested. Which pIC50 did it give?
Answer: 6.10 to 6.70

Question: How did the pIC50 turn out when `CC(=O)OCc1cccc(-c2cc(NCCCN3CCCCC3)c3ccccc3n2)c1` [Compound I79, 3-{4-[(3-piperidylpropyl)amino]-2-quinolyl}phenyl)methyl acetate] was run?
Answer: 5.30 to 6.10

Question: With `Nc1cc(C(=O)N2CCOCC2)cc(-c2cc(NCCCN3CCCCC3)c3ccccc3n2)c1` [Compound I80] as the molecule, how does the pIC50 read?
Answer: 5.30 to 6.10

Question: With `NC(=O)c1ccc(-c2cc(NCCCN3CCCCC3)c3ccccc3n2)cc1F` [Compound I81] as the molecule, how does the pIC50 read?
Answer: 6.10 to 6.70

Question: How did the pIC50 turn out when `NC(=O)c1ccc(-c2cc(NCCCN3CCCCC3)c3ccccc3n2)cc1Cl` [Compound I82] was run?
Answer: 6.10 to 6.70

Question: How did the pIC50 turn out when `Cc1cc(-c2cc(NCCCN3CCCCC3)c3ccccc3n2)cnc1C#N` [Compound I83] was run?
Answer: 5.30 to 6.10

Question: `O=C(c1ccc(-c2cc(NCCCN3CCCCC3)c3ccccc3n2)cc1)N1CCCC1` [Compound I84, 4-{4-[(3-piperidylpropyl)amino](2-quinolyl)}phenyl pyrrolidinyl ketone] was tested. Which pIC50 did it give?
Answer: 5.30 to 6.10
